pEC50: −log10 of the molar value.

Format in all cases: cell-based
For experiment [1], the target named is T1, human muscarinic M2 receptor (Homo sapiens, UniProt P08172).
T1 sequence (P08172 1-466): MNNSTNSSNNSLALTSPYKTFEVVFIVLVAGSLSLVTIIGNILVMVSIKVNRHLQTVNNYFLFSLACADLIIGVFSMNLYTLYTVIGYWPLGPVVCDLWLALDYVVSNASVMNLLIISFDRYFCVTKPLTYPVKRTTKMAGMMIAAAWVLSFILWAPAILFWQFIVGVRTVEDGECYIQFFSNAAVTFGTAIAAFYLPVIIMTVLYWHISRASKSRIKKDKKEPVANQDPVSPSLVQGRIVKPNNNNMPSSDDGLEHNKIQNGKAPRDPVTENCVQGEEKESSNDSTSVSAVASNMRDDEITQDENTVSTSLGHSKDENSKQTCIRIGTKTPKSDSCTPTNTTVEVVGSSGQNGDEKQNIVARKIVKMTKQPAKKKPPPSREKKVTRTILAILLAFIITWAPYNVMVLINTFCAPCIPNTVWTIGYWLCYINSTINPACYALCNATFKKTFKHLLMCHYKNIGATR
As to the kind of experiment: Alphascreen Surefire phospho-ERK1/2 functional assay, M2. As to conditions: for pEC50: pEC50 M2, CHO cells stably expressing human M2, phospho-ERK1/2; for % Emax cf. ACh, M2: CHO cells stably expressing human M2. How it is done: (§1) ERK1/2 phosphorylation is a downstream consequence of both Gq/11 and Gi/o protein coupled receptor activation, making it highly suitable for the assessment of M1, M3 (Gq/11 coupled) and M2, M4 receptors (Gi/o coupled), rather than using different assay formats for different receptor subtypes. CHO cells stably expressing the human muscarinic M1, M2, M3 or M4 receptor were plated (25K/well) onto 96-well tissue culture plates in MEM-alpha+10% dialysed FBS. Once adhered, cells were serum-starved overnight. Agonist stimulation was performed by the addition of 5 μL agonist to the cells for 5 min (37° C.). Media was removed and 50 μL of lysis buffer added. After 15 min, a 4 μL sample was transferred to 384-well plate and 7 μL of detection mixture added.
(§2) Isomer assignment (Isomer 1, Isomer 2, etc.) is based on the retention time of the compound using the separation technique that was performed in the final purification step. By implication, this could be reversed phase HPLC, chiral HPLC or chiral SFC retention time, and this will vary from compound to compound.

Experiment [2] addresses T2, human muscarinic M3 receptor (Homo sapiens, UniProt P20309).
T2 construct: expressed in transfected cells
Kind of experiment: Alphascreen Surefire phospho-ERK1/2 functional assay, M3. As to conditions: for % Emax cf. ACh, M3: CHO cells stably expressing human M3. As for the experimental part:
as §1, §2
For orientation: Alpha assays give light when donor and acceptor beads are brought close together.

Experiment [3] has as its target T3, human muscarinic M1 receptor (Homo sapiens, UniProt P11229).
T3 sequence (P11229 1-460): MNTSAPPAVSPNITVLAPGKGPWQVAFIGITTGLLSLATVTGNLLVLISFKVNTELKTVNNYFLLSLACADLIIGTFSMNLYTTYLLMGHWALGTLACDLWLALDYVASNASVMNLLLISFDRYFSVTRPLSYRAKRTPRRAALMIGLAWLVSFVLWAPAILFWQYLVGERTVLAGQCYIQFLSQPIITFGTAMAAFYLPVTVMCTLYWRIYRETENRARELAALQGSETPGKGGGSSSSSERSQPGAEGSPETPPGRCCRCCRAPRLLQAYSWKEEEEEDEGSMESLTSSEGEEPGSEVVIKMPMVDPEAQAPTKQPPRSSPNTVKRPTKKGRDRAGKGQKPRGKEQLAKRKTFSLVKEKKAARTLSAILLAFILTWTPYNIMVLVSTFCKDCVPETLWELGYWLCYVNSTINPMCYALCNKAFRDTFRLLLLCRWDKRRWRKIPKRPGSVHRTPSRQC
Kind of experiment: Alphascreen Surefire phospho-ERK1/2 functional assay, M1. As to conditions: for pEC50: pEC50 M1, CHO cells stably expressing human M1, phospho-ERK1/2; for % Emax cf. ACh, M1: CHO cells stably expressing human M1. As for the experimental part: as §1, with “Functional assays were performed using the Alphascreen Surefire phospho-ERK1/2 assay (Crouch & Osmond, Comb. Chem. High Throughput Screen, 2008). ERK1/2” for “ERK1/2”
For the vast majority of examples at least two diastereomers exist and these have been separated, unless otherwise stated, using the techniques of reversed phase HPLC, chiral HPLC or chiral SFC. Isomer assignment (Isomer 1, Isomer 2, etc.) is based on the retention time of the compound using the separation technique that was performed in the final purification step. By implication, this could be reversed phase HPLC, chiral HPLC or chiral SFC retention time, and this will vary from compound to compound.

Experiment [4] addresses T4, human muscarinic M4 receptor (Homo sapiens, UniProt P08173).
T4 sequence (P08173 1-479): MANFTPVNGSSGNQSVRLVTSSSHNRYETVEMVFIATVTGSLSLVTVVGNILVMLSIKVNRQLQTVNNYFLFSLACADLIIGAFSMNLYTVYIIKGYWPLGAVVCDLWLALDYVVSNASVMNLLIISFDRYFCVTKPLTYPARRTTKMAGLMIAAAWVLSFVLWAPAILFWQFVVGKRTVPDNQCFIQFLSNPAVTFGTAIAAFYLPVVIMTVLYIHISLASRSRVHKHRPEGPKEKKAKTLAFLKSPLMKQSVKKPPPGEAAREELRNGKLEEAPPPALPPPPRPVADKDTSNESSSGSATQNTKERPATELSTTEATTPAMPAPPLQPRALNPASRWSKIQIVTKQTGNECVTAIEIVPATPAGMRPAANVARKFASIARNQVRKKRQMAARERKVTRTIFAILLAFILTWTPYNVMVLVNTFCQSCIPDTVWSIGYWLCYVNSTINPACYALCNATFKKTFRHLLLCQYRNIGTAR
Kind of experiment: Alphascreen Surefire phospho-ERK1/2 functional assay, M4. As to conditions: for pEC50: pEC50 M4, CHO cells stably expressing human M4, phospho-ERK1/2; for % Emax cf. ACh, M4: CHO cells stably expressing human M4. How it is done:
as §1, §2

The mark [5] stands for this setting: Emax relative to ACh, listed as 1-2 Isomer 1.
[6] abbreviates: Emax relative to ACh, listed as 5-5 Isomer 2.
[7] abbreviates: Emax relative to ACh, listed as 6-4 Isomer 1.
[8] abbreviates: Emax relative to ACh, listed as 8-1 Isomer 1.
Setting [9] is: Emax relative to ACh, listed as 8-1 Isomer 2.
The mark [10] stands for this setting: Emax relative to ACh, listed as 8-2 Isomer 1.
The mark [11] stands for this setting: Emax relative to ACh, listed as 8-2 Isomer 2.

T2 sequence (P20309 whole entry): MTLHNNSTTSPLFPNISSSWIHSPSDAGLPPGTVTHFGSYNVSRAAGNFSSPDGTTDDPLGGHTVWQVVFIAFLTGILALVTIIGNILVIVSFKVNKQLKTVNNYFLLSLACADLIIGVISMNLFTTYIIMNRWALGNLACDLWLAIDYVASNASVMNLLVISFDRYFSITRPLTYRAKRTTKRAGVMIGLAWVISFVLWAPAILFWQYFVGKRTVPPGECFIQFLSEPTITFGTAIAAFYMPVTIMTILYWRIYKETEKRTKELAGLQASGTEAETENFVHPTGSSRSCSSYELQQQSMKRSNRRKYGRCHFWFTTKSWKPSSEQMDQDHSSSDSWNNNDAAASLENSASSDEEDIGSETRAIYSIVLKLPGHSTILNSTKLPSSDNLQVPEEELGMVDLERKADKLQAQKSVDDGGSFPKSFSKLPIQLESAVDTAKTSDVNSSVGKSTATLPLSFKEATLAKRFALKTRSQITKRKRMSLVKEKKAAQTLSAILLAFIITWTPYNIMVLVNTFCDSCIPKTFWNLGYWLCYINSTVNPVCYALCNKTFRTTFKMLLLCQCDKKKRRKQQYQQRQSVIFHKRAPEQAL

Regarding `CCOC(=O)N1C2COCC1CC(N1CCC(n3cccn3)CC1)C2` (single isomer, unassigned) [Example 1-1 Isomer 1, Ethyl 7-[4-(1H-pyrazol-1-yl)piperidin-1-yl]-3-oxa-9-azabicyclo[3.3.1]nonane-9-carboxylate], the maximum response (Emax) (commonly the greatest response seen or fitted, relative to the assay's reference) in experiment [1] (CHO, read-out: % Emax cf. ACh, M2, CHO cells stably expressing human M2, Emax relative to ACh) was 57%; in experiment [2] (CHO, read-out: % Emax cf. ACh, M3, CHO cells stably expressing human M3, Emax relative to ACh) it was 13%; in experiment [3] (CHO, read-out: % Emax cf. ACh, M1, CHO cells stably expressing human M1, Emax relative to ACh), 116%; in experiment [4] (CHO, read-out: % Emax cf. ACh, M4, CHO cells stably expressing human M4, Emax relative to ACh) it was 100%. Also, the pEC50 (in general, the EC50 on a negative log10 scale, so that one unit is a factor of ten) in experiment [1] is 6.24; in experiment [2] (pEC50 M3, CHO cells stably expressing human M3, phospho-ERK1/2), less than 4.70; in experiment [3], 6.37; in experiment [4], 7.28.
Turning to `CCOC(=O)N1C2COCC1CC(N1CCC(n3cc(Cl)cn3)CC1)C2` (single isomer, unassigned) [Example 1-2 Isomer 1, Ethyl 7-[4-(4-chloro-1H-pyrazol-1-yl)piperidin-1-yl]-3-oxa-9-azabicyclo[3.3.1]nonane-9-carboxylate], the “% Emax cf. ACh, M2” value in experiment [1] (setting [5]) was 69%. Moreover, the figures for the negative-log EC50 (pEC50) in experiment [1], in experiment [3] and in experiment [4] were 7.06, 7.82 and 8.54, respectively. Moreover, the “% Emax cf. ACh, M3” value in experiment [2] (Emax relative to ACh) turned out to be 2%. Further, the “% Emax cf. ACh, M1” value in experiment [3] (setting [5]) is given as 96%. In addition, in experiment [4] (setting [5]), the “% Emax cf. ACh, M4” value was determined as 78%.
Take `CCOC(=O)N1C2COCC1CC(N1CCC3(CC1)C(=O)Nc1ccccc13)C2` (single isomer, unassigned) [Example 5-5 Isomer 2, Ethyl 7-(2-oxo-1,2-dihydro-1′H-spiro[indole-3,4′-piperidin]-1′yl)-3-oxa-9-azabicyclo[3.3.1]nonane-9-carboxylate]: the “% Emax cf. ACh, M2” value in experiment [1] (setting [6]) is 67%. The negative logarithm of the EC50 (pEC50) is 7.12 in experiment [1], 7.27 in experiment [3] and 8.07 in experiment [4]. Besides, the “% Emax cf. ACh, M1” value in experiment [3] (setting [6]) is on record as 108%. Besides, the “% Emax cf. ACh, M4” value in experiment [4] (Emax relative to ACh) came to 108%.
As to `CCOC(=O)N1C2COCC1CC(N1CCC(N(CC3(C)CCC3)C(C)=O)CC1)C2` (single isomer, unassigned) [Example 6-4 Isomer 1], the “% Emax cf. ACh, M2” value in experiment [1] (setting [7]) was found to be 33%. Also, the results for the negative-log EC50 (pEC50) in experiment [1], in experiment [3] and in experiment [4] were 6.44, 7.84 and 7.37, respectively. Moreover, the “% Emax cf. ACh, M1” value in experiment [3] (setting [7]) is 103%. The “% Emax cf. ACh, M4” value in experiment [4] (setting [7]) is reported as 80%.
On to `COC(=O)N1C2COCC1CC(N1CCC(N(CC3(C)CCC3)C(C)=O)CC1)C2` (single isomer, unassigned) [Example 8-1 Isomer 1, Methyl 7-(4-(N-((1-methylcyclobutyl)methyl)acetamido)piperidin-1-yl)-3-oxa-9-azabicyclo[3.3.1]nonane-9-carboxylate], for which, in experiment [3] (setting [8]), the “% Emax cf. ACh, M1” value amounted to 123%. The pEC50 in experiment [3] was 7.07; in experiment [4] it was 6.81. Moreover, the “% Emax cf. ACh, M4” value in experiment [4] (setting [8]) was 77%.
For the compound `COC(=O)N1C2COCC1CC(N1CCC(N(CC3(C)CCC3)C(C)=O)CC1)C2` (single isomer, unassigned) [Example 8-1 Isomer 2, Methyl 7-(4-(N-((1-methylcyclobutyl)methyl)acetamido)piperidin-1-yl)-3-oxa-9-azabicyclo[3.3.1]nonane-9-carboxylate], in experiment [3] (setting [9]), the “% Emax cf. ACh, M1” value is reported as 86%. Besides, the figures for the pEC50 in experiment [3] and in experiment [4] were 6.63 and 6.24, respectively. In addition, in experiment [4] (setting [9]), the “% Emax cf. ACh, M4” value was 47%.
Consider `COC(=O)N1C2COCC1CC(N1CCC(N(Cc3ccccc3)C(C)=O)CC1)C2` (single isomer, unassigned) [Example 8-2 Isomer 1, Methyl 7-(4-(N-benzylacetamido)piperidin-1-yl)-3-oxa-9-azabicyclo[3.3.1]nonane-9-carboxylate], for which the “% Emax cf. ACh, M1” value in experiment [3] (setting [10]) was found to be 99%. For the same compound, the pEC50 is 7.10 in experiment [3] and 6.18 in experiment [4]. For the same compound, the “% Emax cf. ACh, M4” value in experiment [4] (setting [10]) worked out at 54%.
Take `COC(=O)N1C2COCC1CC(N1CCC(N(Cc3ccccc3)C(C)=O)CC1)C2` (single isomer, unassigned) [Example 8-2 Isomer 2, Methyl 7-(4-(N-benzylacetamido)piperidin-1-yl)-3-oxa-9-azabicyclo[3.3.1]nonane-9-carboxylate]: the “% Emax cf. ACh, M1” value in experiment [3] (setting [11]) is given as 60%. Also, the values for the pEC50 in experiment [3] and in experiment [4] were 6.22 and less than 4.70, respectively. In addition, the “% Emax cf. ACh, M4” value in experiment [4] (setting [11]) is on record as 27%.
For `CC(=O)OCC[N+](C)(C)C` [ACh], the “% Emax cf. ACh, M3” value in experiment [2] (Emax relative to ACh) is 115%. Moreover, in experiment [4] (Emax relative to ACh), the “% Emax cf. ACh, M4” value worked out at 110%.

The values above are taken from US10787447B2, “Pharmaceutical compounds” (Heptares Therapeutics Limited, priority 2018, dated 2020).
